From US12319709B2, “Diaryl trehalose compounds and uses thereof” (THE UNIVERSITY OF MONTANA, priority 2018, dated 2025)

Experiments:
RAW264.7 cells = assay: Cytokine (TNFα) response of mouse macrophage cell line; Table 2 'Murine'; type: cell-based; parameters: Maximum cytokine response Murine: unit not given here; settings: NR = no response
Procedure: Compounds were also tested in a mouse macrophage cell line (FIG. 4B). RAW264.7 cells were subjected to increasing concentrations of the compounds and assessed for production of the cytokine TNFα.

[1] = tested on: peripheral blood mononuclear cells (PBMCs); assay: IL-6 induction in fresh human PBMCs; type: cell-based; settings: human IL-6; NR = no response
Procedure: Tumor necrosis factor alpha (TNFα) and IL-6 production in peripheral blood mononuclear cells (PBMCs) was measured after exposure to various concentrations of the DAT compounds synthesized as shown above. Initial studies focused on two different methods of delivery of the DAT compounds to PBMC cultures. In the first delivery method, the indicated derivative compound was dissolved in isopropanol, serially diluted, and then dried to the bottom of a tissue culture plate. In the second delivery method, the indicated derivative compound was dissolved in DMSO and serially diluted into tissue culture media. In each method, PBMCs were added to the compounds and incubated at 37° C. TNFα (FIG. 1A) and IL-6 (FIG. 1B) were measured after 18-24 hours after treatment by ELISA assay.
The isolated PBMCs were exposed to increasing concentrations of the indicated compounds resuspended in DMSO and serially diluted in media. IL-6 levels were determined from supernatants eighteen hours after treatment (FIG. 3).

SMILES	Maximum cytokine response Murine (RAW264.7 cells)	Minimal Effective Concentration Murine (RAW264.7 cells)	Maximum cytokine response h-IL-6 [1]	Minimal Effective Concentration h-IL-6 [1]
Cc1cc(C)cc(C(=O)OCC2OC(OC3OC(COC(=O)c4cc(C)cc(C)c4)C(O)C(O)C3O)C(O)C(O)C2O)c1 (stereo not drawn) [UM1016]	3	4.1 µM	1.5 OD	1000 µM
COc1cccc(/C=C/C(=O)OC[C@H]2O[C@H](O[C@H]3O[C@H](COC(=O)/C=C/c4cccc(OC)c4OC)[C@@H](O)[C@H](O)[C@H]3O)[C@H](O)[C@@H](O)[C@@H]2O)c1OC [UM1018]	3.5	37 µM	1.3 OD	333 µM
Cc1ccccc1-c1cccc(C(=O)OC[C@H]2O[C@H](O[C@H]3O[C@H](COC(=O)c4cccc(-c5ccccc5C)c4)[C@@H](O)[C@H](O)[C@H]3O)[C@H](O)[C@@H](O)[C@@H]2O)c1 [UM1041]	1.2	33 µM	1.3 OD	5 µM
O=C(OC[C@H]1O[C@H](O[C@H]2O[C@H](COC(=O)c3ccccc3C(F)(F)F)[C@@H](O)[C@H](O)[C@H]2O)[C@H](O)[C@@H](O)[C@@H]1O)c1ccccc1C(F)(F)F [UM1042]	0.9	11 µM	2 OD	50 µM
CC(C)(C)c1cc(C(C)(C)C)c(O)c(C(=O)OC[C@H]2O[C@H](O[C@H]3O[C@H](COC(=O)c4c(O)c(C(C)(C)C)cc(C(C)(C)C)c4O)[C@@H](O)[C@H](O)[C@H]3O)[C@H](O)[C@@H](O)[C@@H]2O)c1O [UM1046]	0.8	0.4 µM	3 OD	20 µM
CC(C)(C)c1cc(C(=O)OC[C@H]2O[C@H](O[C@H]3O[C@H](COC(=O)c4cc(C(C)(C)C)cc(C(C)(C)C)c4)[C@@H](O)[C@H](O)[C@H]3O)[C@H](O)[C@@H](O)[C@@H]2O)cc(C(C)(C)C)c1 [UM1047]	0.9	1.2 µM	1 OD	11 µM
CCOc1cc(C(=O)OCC2OC(OC3OC(COC(=O)c4cc(OCC)c(OCC)c(OCC)c4)C(O)C(O)C3O)C(O)C(O)C2O)cc(OCC)c1OCC (stereo not drawn) [UM1049]	1.3	0.13 µM	3.3 OD	2 µM
CCCCOc1cc(OCCCC)cc(C(=O)OC[C@H]2O[C@H](O[C@H]3O[C@H](COC(=O)c4cc(OCCCC)cc(OCCCC)c4)[C@@H](O)[C@H](O)[C@H]3O)[C@H](O)[C@@H](O)[C@@H]2O)c1 [UM1051]	1.3	0.13 µM	2.5 OD	6 µM
CCCCCOc1cc(OCCCCC)cc(C(=O)OC[C@H]2O[C@H](O[C@H]3O[C@H](COC(=O)c4cc(OCCCCC)cc(OCCCCC)c4)[C@@H](O)[C@H](O)[C@H]3O)[C@H](O)[C@@H](O)[C@@H]2O)c1 [UM1052]	1.3	0.13 µM	3.3 OD	0.08 µM
O=C(OC[C@H]1O[C@H](O[C@H]2O[C@H](COC(=O)c3ccc(-c4ccccc4)cc3O)[C@@H](O)[C@H](O)[C@H]2O)[C@H](O)[C@@H](O)[C@@H]1O)c1ccc(-c2ccccc2)cc1O [UM1062]	3	100 µM	3 OD	100 µM
O=C(OC[C@H]1O[C@H](O[C@H]2O[C@H](COC(=O)c3c(C(F)(F)F)cccc3C(F)(F)F)[C@@H](O)[C@H](O)[C@H]2O)[C@H](O)[C@@H](O)[C@@H]1O)c1c(C(F)(F)F)cccc1C(F)(F)F [UM1065]	2.5	100 µM	3 OD	3.7 µM
O=C(OC[C@H]1O[C@H](O[C@H]2O[C@H](COC(=O)c3cc(C(F)(F)F)ccc3C(F)(F)F)[C@@H](O)[C@H](O)[C@H]2O)[C@H](O)[C@@H](O)[C@@H]1O)c1cc(C(F)(F)F)ccc1C(F)(F)F [UM1066]	3	100 µM	2.6 OD	33.3 µM
COc1ccc(-c2ccc(C(=O)OC[C@H]3O[C@H](O[C@H]4O[C@H](COC(=O)c5ccc(-c6ccc(OC)cc6)cc5)[C@@H](O)[C@H](O)[C@H]4O)[C@H](O)[C@@H](O)[C@@H]3O)cc2)cc1 [UM1070]	2	100 µM	3 OD	33.3 µM
Cc1cccc(Nc2ccccc2C(=O)OC[C@H]2O[C@H](O[C@H]3O[C@H](COC(=O)c4ccccc4Nc4cccc(C)c4C)[C@@H](O)[C@H](O)[C@H]3O)[C@H](O)[C@@H](O)[C@@H]2O)c1C [UM1074]	2	1.2 µM	3.5 OD	33.3 µM
O=C(OC[C@H]1O[C@H](O[C@H]2O[C@H](COC(=O)c3ccccc3Nc3ccccc3)[C@@H](O)[C@H](O)[C@H]2O)[C@H](O)[C@@H](O)[C@@H]1O)c1ccccc1Nc1ccccc1 [UM1075]	2.2	3.7 µM	3.5 OD	20 µM
O=C(OC[C@H]1O[C@H](O[C@H]2O[C@H](COC(=O)c3cc([N+](=O)[O-])cc([N+](=O)[O-])c3)[C@@H](O)[C@H](O)[C@H]2O)[C@H](O)[C@@H](O)[C@@H]1O)c1cc([N+](=O)[O-])cc([N+](=O)[O-])c1 [UM1080]	1	33 µM	2 OD	100 µM
COc1cc(Br)c(CC(=O)OC[C@H]2O[C@H](O[C@H]3O[C@H](COC(=O)Cc4cc(OC)c(OC)cc4Br)[C@@H](O)[C@H](O)[C@H]3O)[C@H](O)[C@@H](O)[C@@H]2O)cc1OC [UM1082]	1.7	33 µM	0.5 OD	100 µM
O=C(OC[C@H]1O[C@H](O[C@H]2O[C@H](COC(=O)c3ccc(C(F)(F)F)cc3C(F)(F)F)[C@@H](O)[C@H](O)[C@H]2O)[C@H](O)[C@@H](O)[C@@H]1O)c1ccc(C(F)(F)F)cc1C(F)(F)F [UM1084]	2.9	33 µM	3 OD	100 µM
Cc1ccc(C(=O)OC[C@H]2O[C@H](O[C@H]3O[C@H](COC(=O)c4ccc(C)cc4C(F)(F)F)[C@@H](O)[C@H](O)[C@H]3O)[C@H](O)[C@@H](O)[C@@H]2O)c(C(F)(F)F)c1 [UM1085]	2.2	33 µM	3 OD	100 µM
CC(C)(C)c1cc(CCC(=O)OC[C@H]2O[C@H](O[C@H]3O[C@H](COC(=O)CCc4cc(C(C)(C)C)c(O)c(C(C)(C)C)c4)[C@@H](O)[C@H](O)[C@H]3O)[C@H](O)[C@@H](O)[C@@H]2O)cc(C(C)(C)C)c1O [UM1086]	3	0.13 µM	3 OD	33.3 µM
CC(C)(C)c1cc(C(=O)OC[C@H]2O[C@H](O[C@H]3O[C@H](COC(=O)c4cc(C(C)(C)C)c(O)c(C(C)(C)C)c4)[C@@H](O)[C@H](O)[C@H]3O)[C@H](O)[C@@H](O)[C@@H]2O)cc(C(C)(C)C)c1O [UM1087]	3	0.13 µM	3 OD	33.3 µM
CC(C)(C)c1cc(C(=O)NC[C@H]2O[C@H](O[C@H]3O[C@H](CNC(=O)c4cc(C(C)(C)C)cc(C(C)(C)C)c4O)[C@@H](O)[C@H](O)[C@H]3O)[C@H](O)[C@@H](O)[C@@H]2O)c(O)c(C(C)(C)C)c1 [UM1088]	1.3	0.4 µM	3.5 OD	2.5 µM
CCCCCCOc1cc(OCCCCCC)cc(C(=O)OC[C@H]2O[C@H](O[C@H]3O[C@H](COC(=O)c4cc(OCCCCCC)cc(OCCCCCC)c4)[C@@H](O)[C@H](O)[C@H]3O)[C@H](O)[C@@H](O)[C@@H]2O)c1 [UM1092]	<.001	3.4 µM	3.3 OD	3.7 µM
CCCCCCCCOc1cc(OCCCCCCCC)cc(C(=O)OC[C@H]2O[C@H](O[C@H]3O[C@H](COC(=O)c4cc(OCCCCCCCC)cc(OCCCCCCCC)c4)[C@@H](O)[C@H](O)[C@H]3O)[C@H](O)[C@@H](O)[C@@H]2O)c1 [UM1093]	<.001	3.4 µM	3.4 OD	1.2 µM
